# Data as given in PMC9130233, “An inhibitor of RORγ for chronic pulmonary obstructive disease treatment” (Scientific Reports, 2022).
# Target: T1, Alpha 1D (Homo sapiens, UniProt P25100)
# T1 construct: Eurofins Cerep
# Experiment: Cerep panel, Alpha 1D
# Description: Based on the homology of the ligand binding domains, 3 different isoforms of ROR (hRORα, hRORβ and hRORγ) are reported. Small variations in the LBD regions possibly lead to differences in competitive binding between the nuclear receptors of the ROR isoforms (Fig. 1b). Similar to the assessment of RORγ binding assay, TR-FRET binding assays were also used to assess the affinity of PCCR-1 for other ROR isoforms. […] This was reconfirmed in cellular functional assays for the selected isoforms and nuclear receptors using Gal4 DBD with luciferase reporter system from Indigo (PA, USA). […] In addition, both cellular agonist and antagonist effects as well as for enzyme activity were evaluated with a known reference compound for each target, using a radiolabeled method (Eurofins Cerep, France, Table 1).
# T1 sequence (P25100 whole entry): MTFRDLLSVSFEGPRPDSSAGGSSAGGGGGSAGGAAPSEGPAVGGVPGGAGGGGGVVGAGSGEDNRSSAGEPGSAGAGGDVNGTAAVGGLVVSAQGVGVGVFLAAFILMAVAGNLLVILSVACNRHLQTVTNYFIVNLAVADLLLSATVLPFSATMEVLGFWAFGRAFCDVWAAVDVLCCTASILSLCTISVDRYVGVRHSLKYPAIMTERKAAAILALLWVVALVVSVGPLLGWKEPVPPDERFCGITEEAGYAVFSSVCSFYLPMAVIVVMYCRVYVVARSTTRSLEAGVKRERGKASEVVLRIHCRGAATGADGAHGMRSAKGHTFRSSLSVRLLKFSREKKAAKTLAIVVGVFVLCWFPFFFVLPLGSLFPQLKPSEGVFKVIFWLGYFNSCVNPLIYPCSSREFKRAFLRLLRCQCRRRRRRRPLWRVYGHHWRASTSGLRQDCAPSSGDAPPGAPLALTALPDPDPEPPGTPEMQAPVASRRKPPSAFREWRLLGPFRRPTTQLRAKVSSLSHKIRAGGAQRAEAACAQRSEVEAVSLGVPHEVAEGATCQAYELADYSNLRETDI
smiles,measurement,value
CCn1c(C(C)(C)Oc2ccc(F)cc2F)nc2cc(NC(=O)Cc3ccc(S(=O)(=O)CC)cc3)ccc21 [PCCR-1],IC50,550 nM
